Measured values taken from US20090306093A1, “METHOD FOR TREATING PATIENT HAVING BENIGN PROSTATE HYPERPLASIA” (KAOHSIUNG MEDICAL UNIVERSITY, priority 2008, published 2009).

Test system: PZ-HPV-7 human prostatic epithelial cells
Assay: Trypan blue exclusion assay
Type: cell-based
Conditions: 1-100 μM, 24 and 48 hours
Experimental: PZ-HPV-7, a human prostate epithelial cell line derived from normal peripheral zone tissue and transfected with human papillomavirus type 18, was obtained from the American Type Culture Collection (ATCC). Cells were grown in K-SFM medium supplemented with 100 U/mL penicillin, […], streptomycin 5 ng/ml, EGF human recombinant and 50 µg/mL BPE in 75-cm^2 flasks at 37° C. in a humidified atmosphere of […]. The culture medium was renewed every 2 days and cells were sub-cultured every 6 days. For the experiments, cells were seeded in 24-well plates at a density of 1×10^4 cells/well. After 24 hours and 48 hours, when cells were 80% confluent, KMUP-1 (1-100 μM) was added to the 24-well plates. Cell proliferation was measured using MTT assay (3-[4,5-dimethylthiazol-2-yl]-2,5-diphenyl-tetrazolium bromide, Sigma). The trypan blue […] exclusion assay was performed to determine the proportion of living and dead cells in 24 hours and 48 hours after treatment. After 24 hours and 48 hours of treatment with KMUP-1 (1-100 μM), attached cells were collected by trypsinization. Cells were counted in a hemocytometer using equal volume of cell suspension and trypan blue solution (0.2% in PBS).

SMILES: Cn1c(=O)c2c(ncn2CCN2CCN(c3ccccc3Cl)CC2)n(C)c1=O [KMUP-1, 7-[2-[4-(2-Chlorobenzene)piperazinyl]ethyl]-1,3-dimethyl xanthine]
- PZ-HPV-7 cell growth, Trypan blue assay: dose- and time-dependent inhibition
